pIC50: −log10 of the molar value.
System: Wnt activity (wnt-responsive SP5 promoter luciferase reporter in SW480 cells)
Assay: Wnt reporter screening assay: SP5 promoter-driven firefly luciferase in SW480 cells
Format: cell-based
Conditions: Homo sapiens; SW480 colon cancer cells with SP5 promoter luciferase reporter; half-log dilutions, ten micromolar top concentration; read 24-40 h after compound addition; normalized to DMSO; read-out: Wnt inhibition
From the text: Another screening assay for Wnt activity is described as follows. Reporter cell lines can be generated by stably transducing cells of cancer cell lines (e.g., colon cancer) with a lentiviral construct that include a wnt-responsive promoter driving expression of the firefly luciferase gene.
Lentiviral constructs can be made in which the SP5 promoter, a promoter having eight TCF/LEF binding sites derived from the SP5 promoter, is linked upstream of the firefly luciferase gene. The lentiviral constructs can also include a hygromycin resistance gene as a selectable marker. The SP5 promoter construct can be used to transduce SW480 cells, a colon cancer cell line having a mutated APC gene that generates a truncated APC protein, leading to de-regulated accumulation of β-catenin.
Cultured SW480 cells bearing a reporter construct can be distributed at approximately 10,000 cells per well into 96 well or 384 well plates. Compounds from a small molecule compound library can then be added to the wells in half-log dilutions using a ten micromolar top concentration. A series of control wells for each cell type receive only buffer and compound solvent. Twenty-four to forty hours after the addition of compound, reporter activity for luciferase can be assayed, for example, by addition of the BrightGlo luminescence reagent (Promega) and the Victor3 plate reader (Perkin Elmer). Readings can be normalized to DMSO only treated cells, and normalized activities can then be used in the IC50 calculations.

Structure (SMILES)	pIC50
CN(C)C(=O)Nc1cncc(-c2ccc3[nH]nc(C(=O)Nc4cccnc4)c3c2)c1 [Compound 1, 5-(5-(3,3-dimethylureido)pyridin-3-yl)-N-(pyridin-3-yl)-1H-indazole-3-carboxamide]	6.76
O=C(Nc1ccc(C(F)(F)F)nc1)c1n[nH]c2ccc(-c3cncc(F)c3)cc12 [Compound 2, 5-(5-fluoropyridin-3-yl)-N-(6-(trifluoromethyl)pyridin-3-yl)-1H-indazole-3-carboxamide]	5.30
O=C(Nc1ccc(C(F)(F)F)nc1)c1n[nH]c2ccc(-c3cccnc3)cc12 [Compound 3, 5-(Pyridin-3-yl)-N-(6-(trifluoromethyl)pyridin-3-yl)-1H-indazole-3-carboxamide]	6.70
O=C(Nc1cccnc1)c1n[nH]c2ccc(-c3cccnc3)cc12 [Compound 4, N,5-di(pyridin-3-yl)-1H-indazole-3-carboxamide]	6.80
O=C(Nc1cccc(-c2cccc(F)c2)c1)c1n[nH]c2ccc(-c3cccnc3)cc12 [Compound 5, N-(3′-Fluorobiphenyl-3-yl)-5-(pyridin-3-yl)-1H-indazole-3-carboxamide]	≤ 5.00
O=C(Nc1ccncc1)c1n[nH]c2ccc(-c3cccnc3)cc12 [Compound 6, 5-(Pyridin-3-yl)-N-(pyridin-4-yl)-1H-indazole-3-carboxamide]	6.57
CN(C)Cc1cncc(NC(=O)c2n[nH]c3ccc(-c4cccnc4)cc23)c1 [Compound 7, N-(5-((Dimethylamino)methyl)pyridin-3-yl)-5-(pyridin-3-yl)-1H-indazole-3-carboxamide]	6.96
O=C(Nc1ccc(CN2CCCC2)nc1)c1n[nH]c2ccc(-c3cccnc3)cc12 [Compound 8, 5-(Pyridin-3-yl)-N-(6-(pyrrolidin-1-ylmethyl)pyridin-3-yl)-1H-indazole-3-carboxamide]	6.89
O=C(Nc1cncc(-c2cccc(F)c2)c1)c1n[nH]c2ccc(-c3cccnc3)cc12 [Compound 9, N-(5-(3-Fluorophenyl)pyridin-3-yl)-5-(pyridin-3-yl)-1H-indazole-3-carboxamide]	≤ 5.00
CN1CCN(c2ncccc2NC(=O)c2n[nH]c3ccc(-c4cccnc4)cc23)CC1 [Compound 11, N-(2-(4-Methylpiperazin-1-yl)pyridin-3-yl)-5-(pyridin-3-yl)-1H-indazole-3-carboxamide]	≤ 5.00
CN1CCN(c2ccc(NC(=O)c3n[nH]c4ccc(-c5cccnc5)cc34)cn2)CC1 [Compound 12, N-(6-(4-Methylpiperazin-1-yl)pyridin-3-yl)-5-(pyridin-3-yl)-1H-indazole-3-carboxamide]	7.20
O=C(Nc1cccnc1)c1n[nH]c2ccc(-c3cncc(F)c3)cc12 [Compound 13, 5-(5-fluoropyridin-3-yl)-N-(pyridin-3-yl)-1H-indazole-3-carboxamide]	5.90
O=C(Nc1ccnnc1)c1n[nH]c2ccc(-c3cccnc3)cc12 [Compound 14, N-(Pyridazin-4-yl)-5-(pyridin-3-yl)-1H-indazole-3-carboxamide]	6.97
CN1CCN(Cc2ccc(NC(=O)c3n[nH]c4ccc(-c5cccnc5)cc34)cn2)CC1 [Compound 15, N-(6-((4-Methylpiperazin-1-yl)methyl)pyridin-3-yl)-5-(pyridin-3-yl)-1H-indazole-3-carboxamide]	7.43
O=C(Nc1cccnc1)c1n[nH]c2ccc(-c3cncc(C(F)(F)F)c3)cc12 [Compound 16, N-(pyridin-3-yl)-5-(5-(trifluoromethyl)pyridin-3-yl)-1H-indazole-3-carboxamide]	≤ 5.00
O=C(Nc1ccc(Oc2ccccc2F)nc1)c1n[nH]c2ccc(-c3cccnc3)cc12 [Compound 18, N-(6-(2-fluorophenoxy)pyridin-3-yl)-5-(pyridin-3-yl)-1H-indazole-3-carboxamide]	6.91
O=C(Nc1ccc(Oc2cccc(F)c2)nc1)c1n[nH]c2ccc(-c3cccnc3)cc12 [Compound 19, N-(6-(3-Fluorophenoxy)pyridin-3-yl)-5-(pyridin-3-yl)-1H-indazole-3-carboxamide]	6.97
O=C(Nc1ccc(Oc2ccc(F)cc2)nc1)c1n[nH]c2ccc(-c3cccnc3)cc12 [Compound 20, N-(6-(4-Fluorophenoxy)pyridin-3-yl)-5-(pyridin-3-yl)-1H-indazole-3-carboxamide]	6.93
O=C(Nc1cncc(F)c1)c1n[nH]c2ccc(-c3cccnc3)cc12 [Compound 23, N-(5-Fluoropyridin-3-yl)-5-(pyridin-3-yl)-1H-indazole-3-carboxamide]	6.92

Structure (SMILES)	pIC50
CN(C)Cc1cncc(-c2ccc3[nH]nc(C(=O)Nc4ccc(C(F)(F)F)nc4)c3c2)c1 [Compound 26, 5-(5-((Dimethylamino)methyl)pyridin-3-yl)-N-(6-(trifluoromethyl)pyridin-3-yl)-1H-indazole-3-carboxamide]	6.68
O=C(Nc1cccnc1)c1n[nH]c2ccc(-c3cncc(NC(=O)N4CCOCC4)c3)cc12 [Compound 32, N-(5-(3-(Pyridin-3-ylcarbamoyl)-1H-indazol-5-yl)pyridin-3-yl) morpholine-4-carboxamide]	5.90
CN(C)Cc1cncc(-c2ccc3[nH]nc(C(=O)Nc4ccc(Oc5ccccc5F)nc4)c3c2)c1 [Compound 36, 5-(5-((Dimethylamino)methyl)pyridin-3-yl)-N-(6-(2-fluorophenoxy)pyridin-3-yl)-1H-indazole-3-carboxamide]	6.56
Cn1nc(NC(=O)c2n[nH]c3ccc(-c4cccnc4)cc23)cc1C(F)(F)F [Compound 37, N-(1-Methyl-5-(trifluoromethyl)-1H-pyrazol-3-yl)-5-(pyridin-3-yl)-1H-indazole-3-carboxamide]	5.95
CN1CCN(c2ccc(NC(=O)c3n[nH]c4ccc(-c5cncc(NC(=O)C6CC6)c5)cc34)cn2)CC1 [Compound 38, 5-(5-(Cyclopropanecarboxamido)pyridin-3-yl)-N-(6-(4-methylpiperazin-1-yl)pyridin-3-yl)-1H-indazole-3-carboxamide]	6.92
O=C(Nc1ccc(C(F)(F)F)nc1)c1n[nH]c2ccc(-c3cncc(NC(=O)C4CC4)c3)cc12 [Compound 39, 5-(5-(Cyclopropanecarboxamido)pyridin-3-yl)-N-(6-(trifluoromethyl)pyridin-3-yl)-1H-indazole-3-carboxamide]	7.19
CN(C)Cc1cncc(-c2ccc3[nH]nc(C(=O)Nc4cccnc4)c3c2)c1 [Compound 40, 5-(5-((Dimethylamino)methyl)pyridin-3-yl)-N-(pyridin-3-yl)-1H-indazole-3-carboxamide]	7.19
O=C(Nc1cccnc1)c1n[nH]c2ccc(-c3cncc(NC(=O)C4CC4)c3)cc12 [Compound 41, 5-(5-(Cyclopropanecarboxamido)pyridin-3-yl)-N-(pyridin-3-yl)-1H-indazole-3-carboxamide]	7.17
O=C(NCc1cccnc1)c1n[nH]c2ccc(-c3cccnc3)cc12 [Compound 42, 5-(Pyridin-3-yl)-N-(pyridin-3-ylmethyl)-1H-indazole-3-carboxamide]	6.30
O=C(Nc1cccnc1)c1n[nH]c2ccc(-c3cncc(CN4CCCC4)c3)cc12 [Compound 43, N-(Pyridin-3-yl)-5-(5-(pyrrolidin-1-ylmethyl)pyridin-3-yl)-1H-indazole-3-carboxamide]	7.20
CCOc1ccc(NC(=O)c2n[nH]c3ccc(-c4cncc(CN5CCCC5)c4)cc23)cn1 [Compound 44, N-(6-Ethoxypyridin-3-yl)-5-(5-(pyrrolidin-1-ylmethyl)pyridin-3-yl)-1H-indazole-3-carboxamide]	6.80
CCOc1ccc(NC(=O)c2n[nH]c3ccc(-c4cncc(CN5CCCCC5)c4)cc23)cn1 [Compound 45, N-(6-Ethoxypyridin-3-yl)-5-(5-(piperidin-1-ylmethyl)pyridin-3-yl)-1H-indazole-3-carboxamide]	6.96
O=C(Nc1cccnc1)c1n[nH]c2ccc(-c3cncc(CN4CCCCC4)c3)cc12 [Compound 46, 5-(5-(Piperidin-1-ylmethyl)pyridin-3-yl)-N-(pyridin-3-yl)-1H-indazole-3-carboxamide]	7.82
O=C(Nc1cnccc1C(F)(F)F)c1n[nH]c2ccc(-c3cncc(CN4CCCCC4)c3)cc12 [Compound 47, 5-(5-(Piperidin-1-ylmethyl)pyridin-3-yl)-N-(4-(trifluoromethyl)pyridin-3-yl)-1H-indazole-3-carboxamide]	7.15
O=C(Nc1cnccc1C(F)(F)F)c1n[nH]c2ccc(-c3cccnc3)cc12 [Compound 48, 5-(Pyridin-3-yl)-N-(4-(trifluoromethyl)pyridin-3-yl)-1H-indazole-3-carboxamide]	≤ 5.00
O=C(Nc1cccnc1)c1n[nH]c2ccc(-c3cccc(CN4CCCC4)c3)cc12 [Compound 49, N-(Pyridin-3-yl)-5-(3-(pyrrolidin-1-ylmethyl)phenyl)-1H-indazole-3-carboxamide]	7.24
O=C(Nc1ccc(-c2ccccc2)nc1)c1n[nH]c2ccc(-c3cncc(CN4CCCC4)c3)cc12 [Compound 50, N-(6-Phenylpyridin-3-yl)-5-(5-(pyrrolidin-1-ylmethyl)pyridin-3-yl)-1H-indazole-3-carboxamide]	7.15
O=C(Nc1cccnc1)c1n[nH]c2ccc(-c3ccc(N4CCCC4)nc3)cc12 [Compound 51, N-(Pyridin-3-yl)-5-(6-(pyrrolidin-1-yl)pyridin-3-yl)-1H-indazole-3-carboxamide]	7.59

Source: patent US11780823B2, “Indazole-3-carboxamides and their use as Wnt/β-catenin signaling pathway inhibitors” (BioSplice Therapeutics, Inc., priority 2011, dated 2023)
